Columns and labels:
[1] = Pharmacokinetics of OC246 after single oral administration; format: in vivo, female NMRI mice; details: single oral 50 mg/kg
Description: Pharmacokinetics were assessed for OC246 after single oral (p.o.) administration in female NMRI mice. The compound OC246 was suspended at 50 mg/kg with Lipoid S100 and Myritol 318. Oral dose was 50 mg/kg, Final Concentration 10 mg/ml and Administration Volume 5.0 ml/kg. Blood samples were taken from three mice at individual time points after 0.25, 0.5, 1, 2, 4, 6, 8, 16, and 24 hours from administration, and analyzed using HPLC and mass-spectroscopic bioanalytical methods.
obs: observed; tmax: time point at Cmax; tlast: time at last quantifiable concentration; Cmax: maximum observed concentration; Clast: last quantifiable concentration; SE: standard error; AUClast: area under the concentration-time curve (AUC) calculated with trapezoidal rule between dosing time to the last measurement time point with a conc. value above the lower limit of quantification; AUCinf(obs): AUC calculated using the trapezoidal rule from 0 hours to infinity; AUC % extrapol: percentage of AUCinf(obs) that is due to the extrapolation from tlast to infinity; Rsq: goodness of fit for the determination λz in the terminal elimination phase; λz(Lambda_z): terminal elimination rate constant (of at least three last measured concentrations); t1/2: apparent terminal elimination half-life; CLobs: observed total (systemic) body clearance; Vz_obs: apparent volume of distribution based on AUClast and λz.

[2] = test system: Retinoblastoma Protein pRb1; test: Western blot of SiHa (HPV+) cell extracts; format: cell-based, human; details: 10 μM, 12 and 24 hours
[3] = Pharmacokinetics of VSP034 and VSP035 after oral administration of a liposomal formulation; format: in vivo, female Sprague-Dawley rats; details: for AUC(0-inf) / Cmax / MRT inf / Tmax / half-life: female, Sprague-Dawley; for AUC(0-inf): AUC0-inf; for MRT inf: MRT0-inf
Description: The pharmacokinetic parameters of VSP034 and VSP035 encapsulated as liposomal formulation were assessed after the administration of a single 100 mg/kg dose by oral gavage to 6 female Sprague-Dawley rats weighting 250 grams (+25 g). The animals were randomized into two experimental groups (Groups 1 and 2), each composed of 3 rats. Rats belonging to group 1 were administered with VSP034 and rats belonging to group 2 were administered with VSP035. Blood was collected at baseline and 15 min, 30 min, 1, 2, 4, 6, 8, and 24 hours after the oral gavage. The rats were sacrificed 24 hours after the dosing. Blood was collected at each timepoint from the caudal vein, with the exception of the last collection (24 hours), which was performed by intracardiac puncture at the moment of sacrifice under isoflurane anesthesia. The animals were weighted immediately before the dosing to assess the proper dose and carefully monitored during the experiment. They were kept in standard housing conditions, meeting the legal requirements for the correct housing of rodents for a period not exceeding the maximum experimental endpoints. Ad libitum access to water and food was allowed. […] Humane endpoints have not been reached. The pharmacokinetic analysis was performed using Microsoft Excel plug-in PK Solver. Pharmacokinetic parameters of two compounds are compared with the software GraphPad Prism ver. 8.0 by Student's t test for unpaired data. A p value <0.05 is considered statistically significant.
Analytical method: Compound analysis was performed following the bioanalytical method as in Test 13. In this study, carbamazepine was used as an internal standard.
Pharmacokinetic analysis: A pharmacokinetic analysis of VSP034 and VSP035 was performed using the Excel plug-in 2.0 PK Solver. The results have been fitted according to a non-compartmental modelling following extravascular administration. Concentration-vs-time curves for VSP034 and VSP035.
The main pharmacokinetic parameters (half-life, t1/2; time to maximum plasma concentration, Tmax; maximum plasma concentration, Cmax, AUC Extrapolated to Infinity, AUC0-inf; mean residence time, MRT; Apparent Volume of Distribution During Terminal Phase, Vz/F; and apparent oral clearance, CL/F) were calculated from the coefficients and exponents of the best-fits by using standard formulae.

HPV16 E7 protein = test: Western blot of E7 steady state level in CaSki cells; format: cell-based; details: 10 μM, up to 24 hours
Description: B) For cells in cell culture the following procedure for the preparation of a total cell extract is used. Freshly seeded cells are grown for 24 hours to obtain 65-75% confluency (corresponds for CaSki cells to a plating of approx. 2×10^6 cells/10 cm Ø cell culture dish). Cell culture dishes with medium are out on ice for 5 minutes.
Lysed cells are scraped off the dish and transfers to microcentrifuge tubes, followed by 2×10 sec sonication to complete cell lysis at room temperature. The samples are heated at 96° C. for 10 min and centrifuged for 5 min at 12000 g at room temperature.
Endogenous E7 proteins are rigid, tightly folded molecules and are bound only transiently onto […] membranes during protein blotting procedures, in particular employing semidry methods. Thus, for protein blotting a buffer system containing 40% (v/v) of Methanol is used. These buffers tend to be unstable and therefore freshly prepared solutions need to be used. E7 antibodies are used in TBET at pH7.8. Under these conditions western blot transfer is not complete for most other proteins. If staining of different proteins of the same gel is done, the gel is divided prior to blotting, 40% Methanol is used in the transfer buffer for E7 and a transfer buffer containing 20% Methanol is used for most of the other markers. […]

[4] = female, NMRI, mouse, blood, mean
[5] = rat, in vivo, po, 100 mg/kg, Mean
[6] = rat, in vivo, po, 100 mg/kg, Median

## Cc1ccc(CN2C(=O)c3ccccc3[C@H](C(=O)Nc3cccc(N4CCN(C)CC4)c3)[C@@H]2c2ccc(C(F)(F)F)cc2)cc1 [OC246, N-[3-(4-methylpiperazin-1-yl)phenyl]-2-[(4-methylphenyl)methyl]-1-oxo-3-[4-(trifluoromethyl)phenyl]-1,2,3,4-tetrahydroisoquinoline-4-carboxamide]
[1]; female, NMRI, mouse, blood
  half-life: 135 min
[1]; female, NMRI, mouse, blood, Lipoid S100 and Myritol 318, mean
  Tmax: 2 h
[1]; [4]
  AUC(0-t): 11500 ng·h/mL
  Cmax: 1740 ng/mL
[1]; female, NMRI, mouse, blood, mean, read-out: AUCinf(obs)
  AUC(0-inf): 11500 ng·h/mL
[1]; female, NMRI, mouse, blood, mean, read-out: Clast
  concentration at 24 h: 5.18 ng/mL
[1]
  AUC% extrapol (obs): 0.146%
  CLobs: 72.38 mL/min/kg
  Vz_obs: 14073 mL/kg
  λz (terminal elimination rate constant): 0.309 h⁻¹
[1]; mean
  tlast: 24.00 h
[2]
  Rb protein signals: increase of Rb protein signals

## CN1CCC(CN2C(=O)c3ccccc3[C@H](C(=O)Nc3cccc(N4CCN(C)CC4)c3)[C@H]2c2ccc(C(F)(F)F)cc2)CC1 [VSP035, (3S,4S)-N-[3-(4-methylpiperazin-1-yl)phenyl]-2-[(1-methylpiperidin-4-yl)methyl]-1-oxo-3-[4-(trifluoromethyl)phenyl]-1,2,3,4-tetrahydroisoquinoline-4-carboxamide]
[3]; [5]
  AUC(0-inf): 2230 ng·h/mL
  Cmax: 246 ng/mL
  MRT inf: 6.83 h
  Tmax: 2.42 h
[3]; [6]
  AUC(0-inf): 1480 ng·h/mL
  Cmax: 277 ng/mL
  MRT inf: 6.59 h
  Tmax: 1 h
[3]; rat, in vivo, po, 100 mg/kg, t1/2, Mean
  half-life: 266 min
[3]; rat, in vivo, po, 100 mg/kg, t1/2, Median
  half-life: 214 min
[3]; rat, in vivo, po, 100 mg/kg
  Vz/F, Mean: 0.291 L/g
  Vz/F, Median: 0.278 L/g
[3]; single 100 mg/kg oral gavage, observed 24 hours
  condition of the rats after administration of the liposomal formulation: did not show any sign of suffering or abnormal behavior
[3]; single 100 mg/kg oral, significantly higher
  AUC relative to that of VSP034: 4 fold
HPV16 E7 protein
  HPV16 E7 protein level, time course: steady decline over time
HPV16 E7 protein; listed as Vsp035
  HPV16 E7 protein level, time course: stable e7 reduction
